In patent US7208518B2, “Substituted furochromene compounds of antiinflammatory action” (GlaxoSmithKline Istrazivacki Centar Zagreb D.O.O., priority 2003, dated 2007):

How the values were obtained:
[1] = tested on: hyperreactivity of the bronchi induced by methacholine; assay: Hyperreactivity of the bronchi, pletismometric method, mice; format: in vivo; conditions: i.p. 10 mg/kg, totally for 4 days, methacholine concentration of 25 mg/mL, measured over 24 hours after the provocative test
Description: (§1) Hyperreactivity of the Bronchi
(§2) The hyperreactivity of the bronchi was measured by pletismometric method (Buxco pletismometer), which is based on pressure difference and was performed in conscious and non-bound animals. The action of the compounds on the hyperreactivity of the bronchi induced by methacholine (Sigma) in aerosol form in different concentrations was expressed by the percentage of the increase of the enhanced pause value (PENH) above the base line, which was recorded without a cholinergic stimulant.
Compound 6 was used i.p. in mice in a dosis of 10 mg/kg within a period beginning two days prior to provocative test to the end of the test, totally for 4 days. The hyperreactivity of the bronchi was measured by pletismometric method over 24 hours after the provocative test.

[2] = tested on: hyperreactivity of the bronchi induced by methacholine; assay: Hyperreactivity of the bronchi, pletismometric method, rats; format: in vivo; conditions: i.p. 10 mg/kg, totally for 4 days, methacholine concentration of 50 mg/mL, measured over 24 hours after the provocative test
Description: as §1, §2
Compound 36 was used i.p. in rats in a dosis of 10 mg/kg within a period beginning two days prior to the provocative test to the end of test, totally for 4 days. The hyperreactivity of the bronchi was measured by pletismometric method over 24 hours after the provocative test.

Row | Structure (SMILES) | hyperreactivity of respiratory airways (PENH) in relation to the positive control group [1] | hyperreactivity of respiratory airways (PENH) in relation to the positive control group [2]
1 | Cc1cc(C)c2c(O)c(C3c4c(c5c(C)cc(C)cc5oc4=O)OC3O)c(=O)oc2c1 (centres unmarked) [Compound 6, 2-Hydroxy-3-(4-hydroxy-5,7-dimethyl-2-oxo-2H-chromene-3-yl)-7,9-dimethyl-2,3-dihydro-4H-furo[3,2-c]chromene-4-one] | statistically significantly (t-test, p<0.05) decreased | 
2 | O=c1oc2cc(Cl)ccc2c(O)c1C1c2c(c3ccc(Cl)cc3oc2=O)OC1O (centres unmarked) [Compound 36, 2-Hydroxy-3-(4-hydroxy-7-chloro-2-oxo-2H-chromene-3-yl)-7-chloro-2,3-dihydro-4H-furo[3,2-c]chromene-4-one] |  | statistically significantly (t-test, p<0.01) decreased
